Measurements: patent US20050245399A1, “Pyrazole derivatives as herbicidal compositions containing them” (ISHIHARA SANGYO KAISHA, LTD., priority 2004, published 2005)

system: corn (Zea mays L.), ZEAMX; assay: Test Example 2 post-emergence (foliage treatment) herbicidal activity, ZEAMX; assay type: in vivo; settings: 63 g a.i./ha
Summary of the method: (§1)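 A small sprayer delivered the diluted WP or EC formulation (500 L/ha water, 0.1% v/v spreader) over emerged seedlings in upland soil pots. Damage relative to untreated plants was graded visually from 0 to 100% three weeks or so later (days 20-23).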

Compound	growth controlling degree, ZEAMX [%]
COc1c(Cl)cc(F)c(-c2nn(C)c(OC(F)F)c2Cl)c1NC(=O)OC(C)C [Compound 1-75]	50
COc1c(Cl)cc(F)c(-c2nn(C)c(OC(F)F)c2Cl)c1NC(=O)C(C)=Cc1ccccc1 [Compound 1-251]	10
COc1c(Cl)cc(F)c(-c2nn(C)c(OC(F)F)c2Cl)c1NC(=O)C=Cc1ccccc1C [Compound 1-253]	40

system: rice (Oryza sativa L.), ORYSA; assay: Test Example 2 post-emergence (foliage treatment) herbicidal activity, ORYSA; assay type: in vivo; settings: 63 g a.i./ha
Summary of the method: (§2)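 Foliar spray of formulated compound (500 L/ha dilution water, 0.1% v/v spreader) onto young potted plants at defined leaf stages. Scored 0-100% by visual inspection 20-23 d post-spray.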

Compound	growth controlling degree, ORYSA [%]
COc1c(Cl)cc(F)c(-c2nn(C)c(OC(F)F)c2Cl)c1NC(=O)OC(C)C [Compound 1-75]	80
COc1c(Cl)cc(F)c(-c2nn(C)c(OC(F)F)c2Cl)c1NC(=O)C(C)=Cc1ccccc1 [Compound 1-251]	10
COc1c(Cl)cc(F)c(-c2nn(C)c(OC(F)F)c2Cl)c1NC(=O)C=Cc1ccccc1C [Compound 1-253]	70

system: wheat (Triticum aestivum L.), TRZAX; assay: Test Example 2 post-emergence (foliage treatment) herbicidal activity, TRZAX; assay type: in vivo; settings: 63 g a.i./ha
Summary of the method: as §1

Compound	growth controlling degree, TRZAX [%]
COc1c(Cl)cc(F)c(-c2nn(C)c(OC(F)F)c2Cl)c1NC(=O)OC(C)C [Compound 1-75]	50
COc1c(Cl)cc(F)c(-c2nn(C)c(OC(F)F)c2Cl)c1NC(=O)C(C)=Cc1ccccc1 [Compound 1-251]	20
COc1c(Cl)cc(F)c(-c2nn(C)c(OC(F)F)c2Cl)c1NC(=O)C=Cc1ccccc1C [Compound 1-253]	50

system: green foxtail (Setaria viridis L.), SETVI; assay: Test Example 2 post-emergence (foliage treatment) herbicidal activity, SETVI; assay type: in vivo; settings: 63 g a.i./ha
Summary of the method: as §1

Compound	growth controlling degree, SETVI [%]
COc1c(Cl)cc(F)c(-c2nn(C)c(OC(F)F)c2Cl)c1NC(=O)OC(C)C [Compound 1-75]	100
COc1c(Cl)cc(F)c(-c2nn(C)c(OC(F)F)c2Cl)c1NC(=O)C(C)=Cc1ccccc1 [Compound 1-251]	60
COc1c(Cl)cc(F)c(-c2nn(C)c(OC(F)F)c2Cl)c1NC(=O)C=Cc1ccccc1C [Compound 1-253]	100

system: green foxtail (Setaria viridis L.): SETVI; assay: Test Example 1 pre-emergence herbicidal activity, SETVI; assay type: in vivo; settings: Rate 63 g a.i./ha, visually observed 20th to 23rd day after application
Summary of the method: (§3)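 Visual scoring 20–23 days after treatment gives percent growth control, where 0 equals untreated and 100 means complete kill. Treatment: pre-emergence spray of formulated compound in 500 L/ha water, one day after sowing in upland soil.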

Compound	Pre-emergence Herbicidal Activity SETVI (growth controlling degree) [%]
COc1c(Cl)cc(F)c(-c2nn(C)c(OC(F)F)c2Cl)c1NC(=O)OC(C)C [Compound 1-75]	100
COc1c(Cl)cc(F)c(-c2nn(C)c(OC(F)F)c2Cl)c1NC(=O)C(C)=Cc1ccccc1 [Compound 1-251]	20
COc1c(Cl)cc(F)c(-c2nn(C)c(OC(F)F)c2Cl)c1NC(=O)C=Cc1ccccc1C [Compound 1-253]	50

system: wheat (Triticum aestivum L.): TRZAX; assay: Test Example 1 pre-emergence herbicidal activity, TRZAX; assay type: in vivo; settings: Rate 63 g a.i./ha, visually observed 20th to 23rd day after application
Summary of the method: as §3

Compound	Pre-emergence Herbicidal Activity TRZAX (growth controlling degree) [%]
COc1c(Cl)cc(F)c(-c2nn(C)c(OC(F)F)c2Cl)c1NC(=O)OC(C)C [Compound 1-75]	30
COc1c(Cl)cc(F)c(-c2nn(C)c(OC(F)F)c2Cl)c1NC(=O)C(C)=Cc1ccccc1 [Compound 1-251]	0
COc1c(Cl)cc(F)c(-c2nn(C)c(OC(F)F)c2Cl)c1NC(=O)C=Cc1ccccc1C [Compound 1-253]	0

system: soybean (Glycine max Merr.), GLXMA; assay: Test Example 2 post-emergence (foliage treatment) herbicidal activity, GLXMA; assay type: in vivo; settings: 63 g a.i./ha
Summary of the method: as §1

Compound	growth controlling degree, GLXMA [%]
COc1c(Cl)cc(F)c(-c2nn(C)c(OC(F)F)c2Cl)c1NC(=O)OC(C)C [Compound 1-75]	60
COc1c(Cl)cc(F)c(-c2nn(C)c(OC(F)F)c2Cl)c1NC(=O)C(C)=Cc1ccccc1 [Compound 1-251]	40
COc1c(Cl)cc(F)c(-c2nn(C)c(OC(F)F)c2Cl)c1NC(=O)C=Cc1ccccc1C [Compound 1-253]	80

system: rice (Oryza sativa L.): ORYSA; assay: Test Example 1 pre-emergence herbicidal activity, ORYSA; assay type: in vivo; settings: Rate 63 g a.i./ha, visually observed 20th to 23rd day after application
Summary of the method: as §3

Compound	Pre-emergence Herbicidal Activity ORYSA (growth controlling degree) [%]
COc1c(Cl)cc(F)c(-c2nn(C)c(OC(F)F)c2Cl)c1NC(=O)OC(C)C [Compound 1-75]	30
COc1c(Cl)cc(F)c(-c2nn(C)c(OC(F)F)c2Cl)c1NC(=O)C(C)=Cc1ccccc1 [Compound 1-251]	10
COc1c(Cl)cc(F)c(-c2nn(C)c(OC(F)F)c2Cl)c1NC(=O)C=Cc1ccccc1C [Compound 1-253]	10

system: prickly sida (Sida spinosa L.), SIDSP; assay: Test Example 2 post-emergence (foliage treatment) herbicidal activity, SIDSP; assay type: in vivo; settings: 63 g a.i./ha
Summary of the method: as §1

Compound	growth controlling degree, SIDSP [%]
COc1c(Cl)cc(F)c(-c2nn(C)c(OC(F)F)c2Cl)c1NC(=O)OC(C)C [Compound 1-75]	100
COc1c(Cl)cc(F)c(-c2nn(C)c(OC(F)F)c2Cl)c1NC(=O)C(C)=Cc1ccccc1 [Compound 1-251]	95
COc1c(Cl)cc(F)c(-c2nn(C)c(OC(F)F)c2Cl)c1NC(=O)C=Cc1ccccc1C [Compound 1-253]	100

system: velvetleaf (Abutilon theophrasti): ABUTH; assay: Test Example 1 pre-emergence herbicidal activity, ABUTH; assay type: in vivo; settings: Rate 63 g a.i./ha, visually observed 20th to 23rd day after application
Summary of the method: as §3

Compound	Pre-emergence Herbicidal Activity ABUTH (growth controlling degree) [%]
COc1c(Cl)cc(F)c(-c2nn(C)c(OC(F)F)c2Cl)c1NC(=O)OC(C)C [Compound 1-75]	100
COc1c(Cl)cc(F)c(-c2nn(C)c(OC(F)F)c2Cl)c1NC(=O)C(C)=Cc1ccccc1 [Compound 1-251]	30
COc1c(Cl)cc(F)c(-c2nn(C)c(OC(F)F)c2Cl)c1NC(=O)C=Cc1ccccc1C [Compound 1-253]	40

system: redroot pigweed (Amaranthus retroflexus L.): AMARE; assay: Test Example 1 pre-emergence herbicidal activity, AMARE; assay type: in vivo; settings: Rate 63 g a.i./ha, visually observed 20th to 23rd day after application
Summary of the method: as §3

Compound	Pre-emergence Herbicidal Activity AMARE (growth controlling degree) [%]
COc1c(Cl)cc(F)c(-c2nn(C)c(OC(F)F)c2Cl)c1NC(=O)OC(C)C [Compound 1-75]	100
COc1c(Cl)cc(F)c(-c2nn(C)c(OC(F)F)c2Cl)c1NC(=O)C(C)=Cc1ccccc1 [Compound 1-251]	100
COc1c(Cl)cc(F)c(-c2nn(C)c(OC(F)F)c2Cl)c1NC(=O)C=Cc1ccccc1C [Compound 1-253]	100

system: crabgrass (Digitaria sanguinalis L.), DIGSA; assay: Test Example 2 post-emergence (foliage treatment) herbicidal activity, DIGSA; assay type: in vivo; settings: 63 g a.i./ha
Summary of the method: as §2

Compound	growth controlling degree, DIGSP [%]
COc1c(Cl)cc(F)c(-c2nn(C)c(OC(F)F)c2Cl)c1NC(=O)OC(C)C [Compound 1-75]	50
COc1c(Cl)cc(F)c(-c2nn(C)c(OC(F)F)c2Cl)c1NC(=O)C(C)=Cc1ccccc1 [Compound 1-251]	70
COc1c(Cl)cc(F)c(-c2nn(C)c(OC(F)F)c2Cl)c1NC(=O)C=Cc1ccccc1C [Compound 1-253]	30

system: barnyardgrass (Echinochloa crus-galli L.): ECHCG; assay: Test Example 1 pre-emergence herbicidal activity, ECHCG; assay type: in vivo; settings: Rate 63 g a.i./ha, visually observed 20th to 23rd day after application
Summary of the method: as §3

Compound	Pre-emergence Herbicidal Activity ECHCG (growth controlling degree) [%]
COc1c(Cl)cc(F)c(-c2nn(C)c(OC(F)F)c2Cl)c1NC(=O)OC(C)C [Compound 1-75]	70
COc1c(Cl)cc(F)c(-c2nn(C)c(OC(F)F)c2Cl)c1NC(=O)C(C)=Cc1ccccc1 [Compound 1-251]	0
COc1c(Cl)cc(F)c(-c2nn(C)c(OC(F)F)c2Cl)c1NC(=O)C=Cc1ccccc1C [Compound 1-253]	20

system: corn (Zea mays L.): ZEAMX; assay: Test Example 1 pre-emergence herbicidal activity, ZEAMX; assay type: in vivo; settings: Rate 63 g a.i./ha, visually observed 20th to 23rd day after application
Summary of the method: as §3

Compound	Pre-emergence Herbicidal Activity ZEAMX (growth controlling degree) [%]
COc1c(Cl)cc(F)c(-c2nn(C)c(OC(F)F)c2Cl)c1NC(=O)OC(C)C [Compound 1-75]	10
COc1c(Cl)cc(F)c(-c2nn(C)c(OC(F)F)c2Cl)c1NC(=O)C(C)=Cc1ccccc1 [Compound 1-251]	0
COc1c(Cl)cc(F)c(-c2nn(C)c(OC(F)F)c2Cl)c1NC(=O)C=Cc1ccccc1C [Compound 1-253]	0

system: velvetleaf (Abutilon theophrasti), ABUTH; assay: Test Example 2 post-emergence (foliage treatment) herbicidal activity, ABUTH; assay type: in vivo; settings: 63 g a.i./ha
Summary of the method: as §1

Compound	growth controlling degree, ABUTH [%]
COc1c(Cl)cc(F)c(-c2nn(C)c(OC(F)F)c2Cl)c1NC(=O)OC(C)C [Compound 1-75]	100
COc1c(Cl)cc(F)c(-c2nn(C)c(OC(F)F)c2Cl)c1NC(=O)C(C)=Cc1ccccc1 [Compound 1-251]	95
COc1c(Cl)cc(F)c(-c2nn(C)c(OC(F)F)c2Cl)c1NC(=O)C=Cc1ccccc1C [Compound 1-253]	100

system: crabgrass (Digitaria sanguinalis L.): DIGSA; assay: Test Example 1 pre-emergence herbicidal activity, DIGSA; assay type: in vivo; settings: Rate 63 g a.i./ha, visually observed 20th to 23rd day after application
Summary of the method: as §3

Compound	Pre-emergence Herbicidal Activity DIGSP (growth controlling degree) [%]
COc1c(Cl)cc(F)c(-c2nn(C)c(OC(F)F)c2Cl)c1NC(=O)OC(C)C [Compound 1-75]	100
COc1c(Cl)cc(F)c(-c2nn(C)c(OC(F)F)c2Cl)c1NC(=O)C(C)=Cc1ccccc1 [Compound 1-251]	20
COc1c(Cl)cc(F)c(-c2nn(C)c(OC(F)F)c2Cl)c1NC(=O)C=Cc1ccccc1C [Compound 1-253]	70

system: soybean (Glycine max Merr.): GLXMA; assay: Test Example 1 pre-emergence herbicidal activity, GLXMA; assay type: in vivo; settings: Rate 63 g a.i./ha, visually observed 20th to 23rd day after application
Summary of the method: as §3

Compound	Pre-emergence Herbicidal Activity GLXMA (growth controlling degree) [%]
COc1c(Cl)cc(F)c(-c2nn(C)c(OC(F)F)c2Cl)c1NC(=O)OC(C)C [Compound 1-75]	0
COc1c(Cl)cc(F)c(-c2nn(C)c(OC(F)F)c2Cl)c1NC(=O)C(C)=Cc1ccccc1 [Compound 1-251]	0
COc1c(Cl)cc(F)c(-c2nn(C)c(OC(F)F)c2Cl)c1NC(=O)C=Cc1ccccc1C [Compound 1-253]	0

system: redroot pigweed (Amaranthus retroflexus L.), AMARE; assay: Test Example 2 post-emergence (foliage treatment) herbicidal activity, AMARE; assay type: in vivo; settings: 63 g a.i./ha
Summary of the method: as §2

Compound	growth controlling degree, AMARE [%]
COc1c(Cl)cc(F)c(-c2nn(C)c(OC(F)F)c2Cl)c1NC(=O)OC(C)C [Compound 1-75]	100
COc1c(Cl)cc(F)c(-c2nn(C)c(OC(F)F)c2Cl)c1NC(=O)C(C)=Cc1ccccc1 [Compound 1-251]	100
COc1c(Cl)cc(F)c(-c2nn(C)c(OC(F)F)c2Cl)c1NC(=O)C=Cc1ccccc1C [Compound 1-253]	100

system: barnyardgrass (Echinochloa crus-galli L.), ECHCG; assay: Test Example 2 post-emergence (foliage treatment) herbicidal activity, ECHCG; assay type: in vivo; settings: 63 g a.i./ha
Summary of the method: as §2

Compound	growth controlling degree, ECHCO [%]
COc1c(Cl)cc(F)c(-c2nn(C)c(OC(F)F)c2Cl)c1NC(=O)OC(C)C [Compound 1-75]	100
COc1c(Cl)cc(F)c(-c2nn(C)c(OC(F)F)c2Cl)c1NC(=O)C(C)=Cc1ccccc1 [Compound 1-251]	60
COc1c(Cl)cc(F)c(-c2nn(C)c(OC(F)F)c2Cl)c1NC(=O)C=Cc1ccccc1C [Compound 1-253]	80

system: prickly sida (Sida spinosa L.): SEDSP; assay: Test Example 1 pre-emergence herbicidal activity, SIDSP; assay type: in vivo; settings: Rate 63 g a.i./ha, visually observed 20th to 23rd day after application
Summary of the method: as §3

Compound	Pre-emergence Herbicidal Activity SIDSP (growth controlling degree) [%]
COc1c(Cl)cc(F)c(-c2nn(C)c(OC(F)F)c2Cl)c1NC(=O)OC(C)C [Compound 1-75]	60
COc1c(Cl)cc(F)c(-c2nn(C)c(OC(F)F)c2Cl)c1NC(=O)C(C)=Cc1ccccc1 [Compound 1-251]	20
COc1c(Cl)cc(F)c(-c2nn(C)c(OC(F)F)c2Cl)c1NC(=O)C=Cc1ccccc1C [Compound 1-253]	30
